The text below walks through data of ChEMBL document CHEMBL3507680, “University of Dundee, Gates Library screen for HepG2 cell viability”.

The series can be described thus: Human HepG2 cell viability assay in 384 well format. In kind it is toxicity, cell-based. Set-up: dose 125 nL, time 70.5 hour; cytotoxicity at 70.5 h: concentration not given beside the values. Particulars: HepG2 cells, read-out: Inhibition.
For the compound `CC(C)OCCS(=O)(=O)N1CCCC1c1cccc(N(C)C)c1` (centres undefined), the cytotoxicity at 70.5 h is -5.82%.
As for `CSCc1nc(CNC(=O)c2cnn(C(C)C)c2)cs1`, the cytotoxicity at 70.5 h was -11.2%.
For the compound `NC(=O)c1ccc(OCCCN2CCC3(CC2)OCCCC3O)cc1` (centres undefined), the cytotoxicity at 70.5 h was -1.53%.
Regarding `N#Cc1ccc(S(=O)(=O)Nc2cnn(C3CCOCC3)c2)cc1`, the cytotoxicity at 70.5 h is -1.54%.
Turning to `CC(C)OCCC(=O)Nc1cccc(N2CCN(CC3CC3)CC2)c1`, the cytotoxicity at 70.5 h is -4.83%.
For `O=C(O)C1CCCN1c1nc(-c2ccc(Cl)c(Cl)c2)cc(C(F)(F)F)n1` (centres undefined), the cytotoxicity at 70.5 h was -3.95%.
In the case of `CN(C)CC(=O)N1CCC2(CC1)CN(c1ccsc1)C(=O)CO2`, the cytotoxicity at 70.5 h came to 21%.
Then `CC(=O)N1CC[C@H]2[C@H](C[C@@H](CN3CCCC3)N2c2nccs2)C1`, with -7.72%.
Consider `O=C(Cc1ccsc1)N1CCC(c2n[nH]c3nccnc23)CC1`, for which the cytotoxicity at 70.5 h is -8.21%.
The figure for `Fc1cc(F)cc(CN2CCC(c3cc4ncccc4cn3)CC2)c1` is 1.34%; for `Cc1nc(COCc2cnc3n2CCN(C)C3C)cs1` (centres undefined) it is -1.73%; for `O=C1CC[C@@H]2[C@@H](CCN2C(=O)c2ccsc2)N1CC1CC1` it is -6.8%.
Then `N#Cc1c(Cl)nsc1NCc1ccc(N2CCSCC2)cc1`, with 12.7%.
With `CN1CCN(c2nsc(-c3cccnc3)c2C#N)CC1`, the cytotoxicity at 70.5 h was -4.14%.
For `CNC(=O)Cc1noc(Cc2cccc(Cl)c2)n1`, the cytotoxicity at 70.5 h is -12.1%.
`Fc1cccc(Oc2ccc(CNCC3CNc4ccnn4C3)cn2)c1` (centres undefined): the cytotoxicity at 70.5 h turned out to be 0.403%.
Consider `Cc1cc(CN(C)C(=O)NCc2ccnc(SC(C)(C)C)c2)no1`, for which the cytotoxicity at 70.5 h is -9.52%.
Then `Cc1noc(C2CCC3(CCN(C(=O)c4ccn(C)n4)CC3)O2)n1` (centres undefined), with 10.4%.
The figure for `Cn1nnc2c1CCN(Cc1ccccn1)C2COCc1ccccc1` (centres undefined) is 14.7%; for `CCc1noc(CNc2ccc(C(=O)N3CCCC(C)C3)cc2C)n1` (centres undefined) it is -10.5%.
The figure for `CN1CCCC(Cc2cncc(C(=O)NC3CC3)c2)C1` (centres undefined) is -6.9%; for `C[C@@H]1CN(C2CCOC2)C[C@]12CCN(c1cccnc1)C2=O` (some centres undefined) it is -9.89%; for `Cn1cnc2c1C(C(=O)N1CCCC1)N(CC1CC1)CC2` (centres undefined) it is -9.9%.
Consider `CC(C)(C)c1cn(C[C@H]2CC3CCN2C[C@@H]3C(=O)NC2CC2)nn1` (some centres undefined), for which the cytotoxicity at 70.5 h amounted to 10.5%.
With `COc1ccc(CNC(=O)c2ccoc2CN2CCNC(=O)C2)cc1`, the cytotoxicity at 70.5 h was found to be 22.4%.
Consider `Cc1cc2c(=O)n(CC(=O)N3CCn4cccc4C3C(C)C)cnc2s1` (centres undefined), for which the cytotoxicity at 70.5 h was -6.1%.
Turning to `c1cnc(Nc2ccc(C3CCCCN3)cn2)cn1` (centres undefined), the cytotoxicity at 70.5 h is -5.51%.
On to `CC1=C(C(=O)NCc2cccnc2-n2cnc3ccccc32)OCCO1`, for which the cytotoxicity at 70.5 h was -0.825%.
For `Cc1ccc(CN2CCOCC2)cc1NC(=O)c1ccsc1`, the cytotoxicity at 70.5 h was -9.12%.
Then `CCN1CCC(c2nc3ccc(NC4CCC4)cn3n2)CC1`, with -4.48%.
Regarding `Cn1cc(C2(C)CN(Cc3ccc(N4CCCC4)nc3)CCO2)cn1` (centres undefined), the cytotoxicity at 70.5 h is -10.5%.
Take `Cc1ccc2c(c1)N(C(=O)c1nccnc1N)CC(C)O2` (centres undefined): the cytotoxicity at 70.5 h was -3.11%.
In the case of `Cc1ccc(Cl)cc1N1CCC(CNC(=O)CC(F)(F)F)C1` (centres undefined), the cytotoxicity at 70.5 h was 1.39%.
For `CCc1nc(N2CCCC(CCOC)(C(=O)O)C2)ncc1C` (centres undefined), the cytotoxicity at 70.5 h was -4.01%.
Then `CC1CCc2nc(NS(=O)(=O)c3cnn(C)c3)sc2C1` (centres undefined), with 0.918%; and `CNc1cc2c(nn1)CCN(C(=O)c1cccc3c1OCCO3)C2`, with -0.154%; and `Cc1nc(CN2CCO[C@@H]3CN(Cc4ccsc4)C[C@@H]3C2)cs1`, with 0.892%.
With `CC(=O)N1CCCN(Cc2cc(F)cc(Br)c2)CC1`, the cytotoxicity at 70.5 h worked out at 21%.
The figure for `Cc1ccc(CN2CCC[C@@H]3CN(C(=O)c4ccco4)C[C@@H]32)s1` is -11%.
As for `COc1cc(C2C3=C(COC3=O)Nc3[nH]nc(C)c32)cc2c1OCO2` (centres undefined), the cytotoxicity at 70.5 h turned out to be 9.37%.
In the case of `Cc1c(C(=O)O)sc2nc(Cc3ccccc3)nc(N)c12`, the cytotoxicity at 70.5 h is -3.73%.
As to `CCC1CN(C(=O)c2csc(-c3cnn(C)c3)n2)CCO1` (centres undefined), the cytotoxicity at 70.5 h is -10.2%.
`CS(=O)(=O)c1ccc(NCCC2CCCO2)c(S(C)(=O)=O)c1` (centres undefined): the cytotoxicity at 70.5 h is -16.8%.
As for `Cc1cccc(CN2C[C@@H]3COC[C@H](NS(C)(=O)=O)[C@@H]3C2)n1`, the cytotoxicity at 70.5 h is -15.5%.
As for `O=S(=O)(N1CCCC1)N1CC[C@H](c2ccccc2)[C@H]2NCCCC[C@H]21`, the cytotoxicity at 70.5 h is -2.6%.
`N#CCCN(Cc1ccco1)C(=O)CN1CCCC1c1cccs1` (centres undefined): the cytotoxicity at 70.5 h came out at 1.44%.
In the case of `Cc1cnn(CC2CCCN2Cc2cc(=O)n3ccccc3n2)c1` (centres undefined), the cytotoxicity at 70.5 h is -5.58%.
As to `CCN(CC)C(=O)CSc1nc2cc(C)nc-2c(O)n1Cc1ccco1`, the cytotoxicity at 70.5 h was -10.9%.
For the compound `O=c1c(S(=O)(=O)N2CCCC2)cccn1Cc1ccc(F)cc1Cl`, the cytotoxicity at 70.5 h turned out to be 31.5%.
Then `Cc1cc(C)cc(CN2CCN(Cc3cc(C#N)n(C)c3)CC2=O)c1`, with -6.92%; and `CC(C)Oc1ccc(CNC(=O)CN(C)S(C)(=O)=O)cc1F`, with -6.43%; and `CC(CNC(=O)c1cccnc1Oc1cccnc1)N(C)C` (centres undefined), with -8.64%.
Turning to `Cc1ncc(CN(C)Cc2nc3cc(Cl)ccc3n2C)s1`, the cytotoxicity at 70.5 h is -18.2%.
For `COc1ccc(CN2CCO[C@H]3CN(C(C)=O)CC[C@H]3C2=O)cc1`, the cytotoxicity at 70.5 h was 19.5%.
For `Clc1ccccc1-c1nc(CNC2CCc3ncnn3C2)co1` (centres undefined), the cytotoxicity at 70.5 h was -2.04%.
For `O=C(Cc1cc(F)cc(Cl)c1)N[C@@H]1CCNC[C@H]1O`, the cytotoxicity at 70.5 h is -5.4%.
As to `O=C(CN1CCCCCC1)N1CCc2nnc(C3CCCNC3)n2CC1` (centres undefined), the cytotoxicity at 70.5 h was 16%.
In the case of `CCS(=O)(=O)c1ccc2oc([C@H]3CCN(Cc4ccccn4)C3)nc2c1`, the cytotoxicity at 70.5 h was 2.52%.
For the compound `Cc1nnsc1CN(C)Cc1ccc(C(=O)Nc2sccc2C#N)cc1`, the cytotoxicity at 70.5 h was -3.25%.
`C[C@@H]1CN(C(=O)c2cccc(F)c2)C[C@]12CCN(c1ccsc1)C2=O`: the cytotoxicity at 70.5 h was -16.2%.
Regarding `Cc1ccoc1C(=O)NCCOc1ncc(Cl)cc1Cl`, the cytotoxicity at 70.5 h was -4.36%.
As to `Cc1c(Cl)c(C(=O)N2CC(c3cccnc3)C2)nn1C`, the cytotoxicity at 70.5 h was -1.27%.
Take `Cc1cc(C)n(-c2cncc(NCCNC(=O)c3cccnc3)n2)n1`: the cytotoxicity at 70.5 h is -3.57%.
In the case of `CN(Cc1cc(Cl)c2c(c1)OCO2)Cc1cscn1`, the cytotoxicity at 70.5 h was 3.03%.
With `CCOCCN1CCC=C(C2c3nc[nH]c3CCN2C(C)=O)C1` (centres undefined), the cytotoxicity at 70.5 h is 0.27%.
Turning to `O=C(c1cc(Cl)c2c(c1)OCO2)N1CCN(c2nccs2)CC1`, the cytotoxicity at 70.5 h turned out to be 1.39%.
As for `CC(NC(=O)NCCCn1cccn1)c1ccccn1` (centres undefined), the cytotoxicity at 70.5 h was -5.57%.
As to `COCCN1CCC(c2cncc(-c3cccc(Cl)c3)n2)CC1`, the cytotoxicity at 70.5 h is -5.78%.
As for `CC(C)CCc1n[nH]c(C(=O)O)c1I`, the cytotoxicity at 70.5 h was -8.29%.
Consider `O=C(NCCCn1cccn1)C1(c2cccc(Cl)c2)CC1`, for which the cytotoxicity at 70.5 h worked out at 55.5%.
The figure for `CC(=O)Nc1nc(C(=O)N2CCCC2Cn2cccn2)cs1` (centres undefined) is -0.875%; for `O=C(Cn1cc(I)cn1)NCC1CCC1` it is -20.2%.
For the compound `O=C(c1cccnc1-c1ccc2c(c1)OCCO2)N1CCCC1`, the cytotoxicity at 70.5 h was -8.05%.
Take `CCN(CC)CCn1ccnc1-c1cccc(O)c1`: the cytotoxicity at 70.5 h stood at 1.22%.
As for `NC(=O)CN1CCCN(C(=O)Cc2ccc(F)c(Br)c2)CC1`, the cytotoxicity at 70.5 h is -8.24%.
For `COC(CNC(=O)C1CC1)c1ccc(C)s1` (centres undefined), the cytotoxicity at 70.5 h came out at 19.1%.
As for `NS(=O)(=O)c1ccc(CNC(=O)c2ccc(Cl)cc2F)cc1`, the cytotoxicity at 70.5 h is 5.61%.
On to `CC(C)N(C)C(=O)c1ccc(Cl)c(NC(=O)COCC2CC2)c1`, for which the cytotoxicity at 70.5 h was -6.46%.
Regarding `Cc1cc(C)nc(N2CCOC(c3cc(CCO)[nH]n3)C2)n1` (centres undefined), the cytotoxicity at 70.5 h was -8.46%.
Consider `Cn1nc(C#N)c2c1CN(C(=O)c1ccco1)CCC2`, for which the cytotoxicity at 70.5 h amounted to 14.2%.
Turning to `COc1ccc(F)c(-c2cc(NCCO)nc(N)n2)c1`, the cytotoxicity at 70.5 h is -3.97%.
Turning to `O=C1NC2(CCN(C(=O)c3ccnnc3)CC2)CC1c1ccccc1` (centres undefined), the cytotoxicity at 70.5 h was 22.9%.
On to `CCC(CO)NC(=O)c1ccc2ccc(N(C)CC3CC3)n2c1` (centres undefined), for which the cytotoxicity at 70.5 h came to 3.39%.
Regarding `COc1ccc(-c2nnc(SC(C)C(=O)NC(C)(C)C)[nH]2)c(OC)c1` (centres undefined), the cytotoxicity at 70.5 h was 32.5%.
As to `O=C(O)COc1ccccc1CN1CCCC1c1ccncn1` (centres undefined), the cytotoxicity at 70.5 h was -6.02%.
`O=C(NCCCNCC1CNc2ccnn2C1)c1ccccc1` (centres undefined): the cytotoxicity at 70.5 h is -12%.
The figure for `Cn1cc(CN2CCc3ncnc(C4CCOC4)c3CC2)cn1` (centres undefined) is 6%; for `Cc1cnn(C2CN(CC(=O)NCCCc3ccccc3)C2)c1` it is 24.2%; for `CC(C)c1sc(Br)nc1C(=O)NCc1cccnc1` it is 23.2%.
Then `CC(=O)N1CCN(C(=O)Nc2ccccc2)CC2(CC(=O)N(C)C2)C1` (centres undefined), with 26.3%; and `Cc1noc(C)c1C(=O)NCc1cccnc1N(C)C`, with -9.96%; and `CC1CN(C(=O)c2ccc(=O)n(C)c2)c2ccccc2NC1=O` (centres undefined), with -0.859%.
`Cc1nncn1CCNC(=O)C(C)(C)c1cccc(Cl)c1`: the cytotoxicity at 70.5 h was -8.68%.
In the case of `CN(Cc1nc(-c2ccccc2)no1)Cc1cnc(N2CCOCC2)s1`, the cytotoxicity at 70.5 h is 1.48%.
Consider `O=C(NCC1CC1)C1CN(C(=O)c2ccncc2)CC12CCOCC2` (centres undefined), for which the cytotoxicity at 70.5 h was 3.6%.
In the case of `Cc1n[nH]c(C)c1-c1cc(-c2cccc(O)c2)nc(N)c1C#N`, the cytotoxicity at 70.5 h was -8.76%.
Regarding `CC(C)c1noc([C@@H]2Cc3[nH]cnc3CN2C(=O)Nc2ccccc2)n1`, the cytotoxicity at 70.5 h worked out at 9.88%.
Regarding `O=C(CN1CCCC1Cn1cncn1)NCCOc1cccc(F)c1` (centres undefined), the cytotoxicity at 70.5 h is -14.6%.
With `CCSc1cc(C(=O)NCc2ccc(C(=O)NC)cc2)ccn1`, the cytotoxicity at 70.5 h is -81.1%.
